Several values for one entry are separate records, joined by “and”; a condition that tells them apart may be missing. Equal values may be shown once. Read-outs that look alike come from different tables or passages of the source. Where no end group is shown, it is not given here.
Experiments:
[1] = system: trypsin biosynthesis in the midgut of female Neobellieria bullata; assay: Effect of injected peptide on trypsin biosynthesis in the gut ([3H]DFP assay); format: in vivo
[2] = system: trypsin-like enzymes; assay: Gut supernatant incubated with Neb-TMOF: conversion of [3H]DFP to [3H]DIP-trypsin derivatives; format: biochemical, Neobellieria; settings: gut supernatant incubated 18 hours at 4° C. with Neb-TMOF (FIG. 6)
[3] = system: ecdysteroid titer; assay: In vivo ecdysteroid titer in larvae; settings: ten picomole per larva, within 18 hours
[4] = system: vitellogenin biosynthesis; assay: Vitellogenin in hemolymph of injected females (SDS-PAGE); format: in vivo, Neobellieria
Method: Electrophoresis and fluorography. ^3 H!DIP-trypsin-like derivatives of 0.04 gut equivalent and 20 μl sample buffer were run by electrophoresis on 12.5% polyacrylamide gel for 1 hour at 20 mA and for 3 hours at 30 mA (Biorad protean 32 CM) (Laemmli, 1970; Borovsky and Schlein, 1988). Gels were stained for 20 minutes with Coomassie Brilliant Blue R250 and destained overnight with methanol/H2 O/acetic acid (40/50/10), and washed 2 times for 30 minutes in 100 ml dimethylsulfoxide (DMSO). Gels were then incubated for 2 h in 200 ml DMSO containing 44 g 2,5-diphenyloxazole (PPO) (Janssen Chimica, Belgium), rinsed with distilled water for 1 hour, dried for 2 hours in a Biorad slab gel dryer at 80° C. and exposed to a Hyperfilm-MP (Amersham) for 2 days at -70° C. Vitellogenin was separated on a 5-15% SDS gradient gel (Huybrechts and De Loof 1977).
Four-day-old females were injected with synthetic Neb-TMOF at final concentration of 10^-9 M. Twenty-four hours later, hemolymph was collected and subjected to PAGE. […] The three yolk polypeptides of vitellogenin were affected (FIG. 7). The decrease in vitellogenin in the hemolymph is probably due to the inhibition of trypsin biosynthesis and decrease in protein digestion in the gut. The Neb-TMOF can also affect the fat body, which is the major site of yolk polypeptide biosynthesis in Neobellieria.

[5] = system: ecdysone biosynthesis by ring glands; assay: In vitro ecdysone biosynthesis by larval ring glands; format: cell-based, Calliphora and Neobellieria

## CSCC[C@H](NC(=O)[C@H](Cc1ccccc1)NC(=O)CNC(=O)CNC(=O)[C@@H](N)Cc1ccc(O)cc1)C(=O)O [methionine-enkephalin, H-YGGFM-OH, reference compound]
[1]; injected with 10^-7 M, control group
  effect on trypsin-like activity: without an effect

## NPTNLH [Neb-TMOF, NH2 -Asn-Pro-Thr-Asn-Leu-His-COOH]
[2]
  reduction in [3H]DIP-trypsin derivatives compared with controls: No reduction
[3]
  reduction of ecdysteroid titer in vivo: up to a factor of four
[4]; 10^-9 M injected, 24 hours later, PAGE
  vitellogenin level in hemolymph compared with non-injected controls: low level of vitellogenin
[4]; injection of the hormone
  egg yolk synthesis after injection: inhibited egg yolk synthesis
[1]; 10^-8 M, injected 4-day-old females
  inhibition of trypsin biosynthesis: 35%
[1]; 10^-9 M injected, liver meal, guts removed 6 h later (FIG. 6)
  reduction in trypsin-like enzymes as compared with controls: 51%
[1]; 10^-9 M, injected females
  inhibition of trypsin biosynthesis: 60% and 50%
[1]; 10^-11 M
  inhibition of trypsin biosynthesis: No inhibition
[1]; column purification step 1, 1.25 ovary equivalents, P<0.05
  inhibition of trypsin biosynthesis: 44%
[1]; column purification step 2, 3.7 ovary equivalents, P<0.05
  inhibition of trypsin biosynthesis: 38%
[1]; column purification step 3, 10 ovary equivalents, P<0.05
  inhibition of trypsin biosynthesis: 43%
[1]; column purification step 4, 10 ovary equivalents, P<0.05
  inhibition of trypsin biosynthesis: 44%
[1]; column purification step 5, 38.5 ovary equivalents, P<0.05
  inhibition of trypsin biosynthesis: 20%
[1]; in vivo, 10^-8 M and 10^-9 M, P<0.05
  inhibition of trypsin biosynthesis in the gut, significance (FIG. 5): Significant inhibition
[1]; physiological concentrations
  effective dose of 50% inhibition (ED50) of trypsin biosynthesis: 10^-9 M
[1]; versus mosquito TMOF
  activity in Neobellieria relative to mosquito TMOF: six fold more active
[5]
  PTIH effect, onset and reversibility: immediate and reversible
[5]; 10^-7 M
  ecdysone biosynthesis inhibited: More than 98%
[5]; ring glands of Neobellieria and Calliphora, read-out: EC50 of the biosynthesis of ecdysone by ring glands
  EC50: 5 nM
[5]; ring glands of larvae of Calliphora and Neobellieria, read-out: EC50 of in vitro ecdysone biosynthesis by ring glands
  EC50: 5 nM

— US5501976A, “Methods and compositions for the control of the flesh fly” (The University of Florida, priority 1995, dated 1996)
